Measurements: publication PMC5938026 (Experimental & Molecular Medicine, 2018)

Biological target: Kv1.5 (Rattus norvegicus, UniProt P19024)
Test: whole-cell patch clamp of CHO cells overexpressing Kv1.[…]
Format: cell-based

Sequence of Kv1.5 (P19024 whole entry): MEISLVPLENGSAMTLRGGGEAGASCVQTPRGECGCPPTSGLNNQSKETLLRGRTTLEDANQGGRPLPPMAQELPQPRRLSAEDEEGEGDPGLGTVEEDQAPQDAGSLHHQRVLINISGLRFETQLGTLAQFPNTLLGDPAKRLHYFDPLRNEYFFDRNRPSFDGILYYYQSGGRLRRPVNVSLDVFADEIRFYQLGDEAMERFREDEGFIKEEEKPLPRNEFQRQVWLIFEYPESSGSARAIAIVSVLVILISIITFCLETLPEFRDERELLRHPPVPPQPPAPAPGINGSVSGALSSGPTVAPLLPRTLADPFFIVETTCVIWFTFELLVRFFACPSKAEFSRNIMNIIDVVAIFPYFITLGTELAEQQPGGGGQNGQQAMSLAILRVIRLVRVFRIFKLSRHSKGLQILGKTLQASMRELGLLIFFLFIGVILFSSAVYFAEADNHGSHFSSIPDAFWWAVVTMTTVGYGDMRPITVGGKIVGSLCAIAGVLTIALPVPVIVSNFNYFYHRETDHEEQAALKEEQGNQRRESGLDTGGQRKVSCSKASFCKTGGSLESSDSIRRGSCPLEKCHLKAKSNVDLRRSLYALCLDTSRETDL

Going from CNC1(c2ccccc2Cl)CCCCC1=O (racemic) [ketamine] to C[C@@]12N[C@@H](Cc3ccccc31)c1ccccc12 [(−) MK801], the IC50 falls from 641 ± 33.2 µM to 157 ± 7.9 µM (4.1-fold). The second is the more potent here.

Work on C[C@]12N[C@H](Cc3ccccc31)c1ccccc12 [(+) MK801] yielded an IC50 of 157 ± 14 µM.
